According to patent US7704995B2 (Exelixis, Inc., priority 2003, dated 2010):

Assays:
[1] = target: KDR (Homo sapiens, UniProt P35968); experiment: Kinase specificity assay (33P phosphoryl transfer, LCCA or AlphaScreen); assay type: biochemical; conditions: ATP close to KM; read-out: KDR inhibition, IC50
Experimental: Kinase activity and compound inhibition are investigated using one or more of the three assay formats described below. The ATP concentrations for each assay are selected to be close to the Michaelis-Menten constant (KM) for each individual kinase. Dose-response experiments are performed at 10 different inhibitor concentrations in a 384-well plate format.
The coating solution is aspirated and the plates are washed once with 50 μL of assay buffer and padded dry. […] The plates are subsequently washed 6-12 times with PBST or TBS buffer.

[2] = target: T1, Chk1 (Homo sapiens, UniProt O14757); experiment: Chk1 kinase assay: incorporation of γ-33P ATP into immobilized myelin basic protein; assay type: biochemical; conditions: 10 nM Chk1, 10 μM unlabeled ATP, 1 hour at room temperature; read-out: Chk1 inhibition, IC50
T1 construct: purchased Upstate Biotechnology
T1 sequence (O14757 1-476): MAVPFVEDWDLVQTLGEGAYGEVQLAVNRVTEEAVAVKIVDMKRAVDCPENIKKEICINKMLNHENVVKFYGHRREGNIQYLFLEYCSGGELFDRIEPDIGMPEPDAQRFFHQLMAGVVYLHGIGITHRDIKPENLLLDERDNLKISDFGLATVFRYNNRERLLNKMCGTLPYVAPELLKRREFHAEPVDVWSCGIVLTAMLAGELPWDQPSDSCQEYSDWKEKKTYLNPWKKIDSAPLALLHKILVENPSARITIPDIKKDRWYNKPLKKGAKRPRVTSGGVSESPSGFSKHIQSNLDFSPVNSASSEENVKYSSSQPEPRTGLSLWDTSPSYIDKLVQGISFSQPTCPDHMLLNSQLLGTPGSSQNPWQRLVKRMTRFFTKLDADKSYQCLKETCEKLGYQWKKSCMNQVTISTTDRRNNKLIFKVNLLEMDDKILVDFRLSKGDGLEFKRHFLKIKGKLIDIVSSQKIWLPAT
In short: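 Chk1 (10 nM) or Chk2 (20 nM) phosphorylated plate-immobilized myelin basic protein for 1 h at room temperature in Hepes pH 7.6 buffer with MgCl2, DTT, 1% DMSO, γ-33P ATP plus 10 μM (Chk1) or 30 μM (Chk2) unlabeled ATP. Bound radioactivity counted by scintillation; IC50 determined, Ki derivable from IC50.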

Chain of KDR (P35968 20-1356): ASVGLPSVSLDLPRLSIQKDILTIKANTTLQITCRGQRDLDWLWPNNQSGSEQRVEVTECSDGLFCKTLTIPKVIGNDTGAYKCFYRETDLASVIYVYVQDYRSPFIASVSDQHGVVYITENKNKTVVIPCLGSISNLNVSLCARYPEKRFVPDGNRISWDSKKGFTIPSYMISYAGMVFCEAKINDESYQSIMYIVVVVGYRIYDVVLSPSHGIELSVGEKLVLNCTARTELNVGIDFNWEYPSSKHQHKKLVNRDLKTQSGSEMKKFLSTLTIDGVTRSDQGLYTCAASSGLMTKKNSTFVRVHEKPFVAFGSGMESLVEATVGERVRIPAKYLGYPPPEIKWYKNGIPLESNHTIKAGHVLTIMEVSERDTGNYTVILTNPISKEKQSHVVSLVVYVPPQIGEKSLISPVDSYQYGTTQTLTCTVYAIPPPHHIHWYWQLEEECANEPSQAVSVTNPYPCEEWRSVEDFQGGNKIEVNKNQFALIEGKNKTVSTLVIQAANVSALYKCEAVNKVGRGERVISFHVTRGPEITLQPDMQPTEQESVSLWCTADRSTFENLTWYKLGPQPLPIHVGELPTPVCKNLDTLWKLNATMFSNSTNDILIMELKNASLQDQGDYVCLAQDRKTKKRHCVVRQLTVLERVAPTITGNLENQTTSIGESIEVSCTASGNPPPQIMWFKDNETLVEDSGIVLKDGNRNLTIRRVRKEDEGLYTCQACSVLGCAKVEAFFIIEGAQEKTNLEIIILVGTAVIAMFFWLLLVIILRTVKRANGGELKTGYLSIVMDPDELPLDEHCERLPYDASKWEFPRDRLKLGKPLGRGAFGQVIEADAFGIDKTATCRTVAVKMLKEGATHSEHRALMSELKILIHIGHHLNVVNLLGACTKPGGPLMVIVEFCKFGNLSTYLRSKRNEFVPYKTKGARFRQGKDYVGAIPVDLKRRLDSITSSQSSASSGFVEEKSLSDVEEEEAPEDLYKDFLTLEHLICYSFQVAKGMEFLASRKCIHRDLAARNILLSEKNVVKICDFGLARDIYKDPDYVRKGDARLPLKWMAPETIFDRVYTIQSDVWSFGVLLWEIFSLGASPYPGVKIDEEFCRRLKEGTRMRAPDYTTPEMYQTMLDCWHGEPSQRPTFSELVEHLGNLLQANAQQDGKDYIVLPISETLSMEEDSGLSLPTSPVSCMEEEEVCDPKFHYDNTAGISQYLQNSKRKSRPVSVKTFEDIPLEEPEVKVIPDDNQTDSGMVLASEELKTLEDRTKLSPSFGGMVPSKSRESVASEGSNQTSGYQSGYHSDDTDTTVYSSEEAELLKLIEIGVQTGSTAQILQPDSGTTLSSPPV

NC(=O)c1nc(-c2cccc3ccccc23)cnc1N [Example 2, 3-Amino-6-naphthalen-1-ylpyrazine-2-carboxamide] showed an IC50 [1] of 0.05 to 1 µM and an IC50 [2] of less than 0.05 µM.
